Data published in US12098144B2, “Piperazine indazole glucocorticoid receptor antagonists” (Corcept Therapeutics Incorporated, priority 2021, dated 2024).

Target: T1, glucocorticoid receptor (Homo sapiens, UniProt P04150)
T1 construct: endogenous in cells; ATCC cat
T1 sequence (P04150 1-777): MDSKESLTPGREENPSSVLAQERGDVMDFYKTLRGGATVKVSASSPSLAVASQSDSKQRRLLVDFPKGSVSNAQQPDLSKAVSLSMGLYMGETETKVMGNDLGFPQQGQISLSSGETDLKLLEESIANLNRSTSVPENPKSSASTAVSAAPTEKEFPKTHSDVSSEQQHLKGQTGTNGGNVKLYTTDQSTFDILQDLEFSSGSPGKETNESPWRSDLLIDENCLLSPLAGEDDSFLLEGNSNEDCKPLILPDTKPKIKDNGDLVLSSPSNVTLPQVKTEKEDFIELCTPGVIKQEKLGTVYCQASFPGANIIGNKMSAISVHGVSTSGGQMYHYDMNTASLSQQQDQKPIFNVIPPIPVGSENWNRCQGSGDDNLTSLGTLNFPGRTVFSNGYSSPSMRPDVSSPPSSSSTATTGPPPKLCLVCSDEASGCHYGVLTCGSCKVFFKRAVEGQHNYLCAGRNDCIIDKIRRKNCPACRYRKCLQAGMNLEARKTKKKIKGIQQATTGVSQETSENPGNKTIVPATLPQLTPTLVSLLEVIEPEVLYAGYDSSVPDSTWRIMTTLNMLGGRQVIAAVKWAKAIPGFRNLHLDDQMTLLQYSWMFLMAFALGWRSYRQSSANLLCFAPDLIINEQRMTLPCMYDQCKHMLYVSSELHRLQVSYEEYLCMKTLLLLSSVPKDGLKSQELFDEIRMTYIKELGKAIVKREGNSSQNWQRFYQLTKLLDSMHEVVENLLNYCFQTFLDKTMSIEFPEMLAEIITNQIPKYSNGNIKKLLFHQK
Assay: Hep G2 TAT Ki: inhibition of dexamethasone-induced TAT in HepG2 cells (96 well)
Format: cell-based
Settings: challenge of 100 nM dexamethasone, IC50 converted to Ki by Cheng and Prusoff equation
Procedure, shortened: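 Cells lysed 15 min at 4 °C; TAT enzyme reaction 2 h at 37 °C, stopped with KOH, 30 min further at 37 °C. Inhibition fitted to 4-parameter logistic.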

Row | Compound | Ki [µM]
1 | Cc1cc2c(cnn2-c2ccc(F)cc2)cc1C1CN(S(=O)(=O)c2cnn(C)n2)CCN1Cc1ccccc1 (stereo not shown) [Example 2, 5-(1-benzyl-4-((2-methyl-2H-1,2,3-triazol-4-yl)sulfonyl)piperazin-2-yl)-1-(4-fluorophenyl)-6-methyl-1H-indazole] | 0.081
2 | Cc1cc2c(cnn2-c2ccc(F)cc2)cc1C1CN(S(=O)(=O)c2cnn(C)n2)CCN1Cc1ccccc1 (single isomer, unassigned) [Example 5, 5-(1-benzyl-4-((2-methyl-2H-1,2,3-triazol-4-yl)sulfonyl)piperazin-2-yl)-1-(4-fluorophenyl)-6-methyl-1H-indazole] | 0.42
3 | Cc1cc2c(cnn2-c2ccc(F)cc2)cc1C1CN(S(=O)(=O)c2cnn(C)n2)CCN1CC1(C(F)(F)F)CC1 (single isomer, unassigned) [Example 83, 1-(4-fluorophenyl)-6-methyl-5-(4-((2-methyl-2H-1,2,3-triazol-4-yl)sulfonyl)-1-((1-(trifluoromethyl)cyclopropyl)methyl)piperazin-2-yl)-1H-indazole] | 0.033
4 | CCn1cc(S(=O)(=O)N2CCN(CC(C)C)C(c3cc4cnn(-c5ccc(F)cc5)c4cc3C)C2)nn1 (single isomer, unassigned) [Example 63, 5-(4-((1-ethyl-1H-1,2,3-triazol-4-yl)sulfonyl)-1-isobutylpiperazin-2-yl)-1-(4-fluorophenyl)-6-methyl-1H-indazole] | 0.02
5 | Cc1cc2c(cnn2-c2ccc(F)cc2)cc1C1CN(S(=O)(=O)CC2CC2)CCN1CC(C)C (single isomer, unassigned) [Example 51, 5-(4-((cyclopropylmethyl)sulfonyl)-1-isobutylpiperazin-2-yl)-1-(4-fluorophenyl)-6-methyl-1H-indazole] | 0.028
6 | CCCS(=O)(=O)N1CCN(CC(C)C)C(c2cc3cnn(-c4ccc(F)cc4)c3cc2C)C1 (single isomer, unassigned) [Example 49, 1-(4-fluorophenyl)-5-(1-isobutyl-4-(propylsulfonyl)piperazin-2-yl)-6-methyl-1H-indazole] | 0.031
7 | Cc1cc2c(cnn2-c2ccc(F)cc2)cc1C1CN(S(=O)(=O)c2cnn(C)n2)CCN1CC(C)C (stereo not shown) [Example 4, 1-(4-fluorophenyl)-5-(1-isobutyl-4-((2-methyl-2H-1,2,3-triazol-4-yl)sulfonyl)piperazin-2-yl)-6-methyl-1H-indazole] | 0.041
8 | Cc1cc2c(cnn2-c2ccc(F)cc2)cc1C1CN(S(=O)(=O)c2cnn(C)n2)CCN1Cc1ccccc1 (single isomer, unassigned) [Example 6, 5-(1-benzyl-4-((2-methyl-2H-1,2,3-triazol-4-yl)sulfonyl)piperazin-2-yl)-1-(4-fluorophenyl)-6-methyl-1H-indazole] | 0.046
9 | Cc1cc2c(cnn2-c2ccc(F)cc2)cc1C1CN(S(=O)(=O)c2cnn(C)n2)CCN1CC1CCOCC1 (stereo not shown) [Example 13, 1-(4-fluorophenyl)-6-methyl-5-(4-((2-methyl-2H-1,2,3-triazol-4-yl)sulfonyl)-1-((tetrahydro-2H-pyran-4-yl)methyl)piperazin-2-yl)-1H-indazole] | 0.097
10 | Cc1cc2c(cnn2-c2ccc(F)cc2)cc1C1CN(S(=O)(=O)c2ncn(C)n2)CCN1CC(C)C (single isomer, unassigned) [Example 92, 1-(4-fluorophenyl)-5-(1-isobutyl-4-((1-methyl-1H-1,2,4-triazol-3-yl)sulfonyl)piperazin-2-yl)-6-methyl-1H-indazole] | 0.086
11 | Cc1cc2c(cnn2-c2ccc(F)cc2)cc1C1CN(S(=O)(=O)c2cnn(C)c2)CCN1CC(C)C (stereo not shown) [Example 7, 1-(4-fluorophenyl)-5-(1-isobutyl-4-((1-methyl-1H-pyrazol-4-yl)sulfonyl)piperazin-2-yl)-6-methyl-1H-indazole] | 0.062
12 | Cc1cc2c(cnn2-c2ccc(F)cc2)cc1C1CN(S(=O)(=O)N2CCOCC2)CCN1CC(C)C (single isomer, unassigned) [Example 53, 4-((3-(1-(4-fluorophenyl)-6-methyl-1H-indazol-5-yl)-4-isobutylpiperazin-1-yl)sulfonyl)morpholine] | 0.041
13 | Cc1cc2c(cnn2-c2ccc(F)cc2)cc1C1CN(S(=O)(=O)c2cnn(C)n2)CCN1C(=O)C(C)C (stereo not shown) [Example 35, 1-(2-(1-(4-fluorophenyl)-6-methyl-1H-indazol-5-yl)-4-((2-methyl-2H-1,2,3-triazol-4-yl)sulfonyl)piperazin-1-yl)-2-methylpropan-1-one] | 0.77
14 | Cc1cc2c(cnn2-c2ccc(F)cc2)cc1C1CN(S(=O)(=O)c2cnn(C)n2)CCN1CC(C)C (single isomer, unassigned) [Example 11, 1-(4-fluorophenyl)-5-(1-isobutyl-4-((2-methyl-2H-1,2,3-triazol-4-yl)sulfonyl)piperazin-2-yl)-6-methyl-1H-indazole] | 0.02
15 | Cc1cc2c(cnn2-c2ccc(F)cc2)cc1C1CN(S(=O)(=O)CC(C)C)CCN1CC(C)C (single isomer, unassigned) [Example 52, 1-(4-fluorophenyl)-5-(1-isobutyl-4-(isobutylsulfonyl)piperazin-2-yl)-6-methyl-1H-indazole] | 0.024
16 | Cc1cc2c(cnn2-c2ccc(F)cc2)cc1C1CN(S(=O)(=O)c2cnn(C)n2)CCN1C1COC1 (single isomer, unassigned) [Example 28, 1-(4-fluorophenyl)-6-methyl-5-(4-((2-methyl-2H-1,2,3-triazol-4-yl)sulfonyl)-1-(oxetan-3-yl)piperazin-2-yl)-1H-indazole] | 0.23

Next, values leading:

Row | Ki [µM] | Compound
17 | 0.025 | Cc1cc2c(cnn2-c2ccc(F)cc2)cc1C1CN(S(=O)(=O)c2ccc(C#N)cc2)CCN1CC(C)C(F)(F)F (single isomer, unassigned) [Example 143, 4-((3-(1-(4-fluorophenyl)-6-methyl-1H-indazol-5-yl)-4-(3,3,3-trifluoro-2-methylpropyl)piperazin-1-yl)sulfonyl)benzonitrile]
18 | 0.023 | CCn1ncc(S(=O)(=O)N2CCN(CCC(F)(F)F)C(c3cc4cnn(-c5ccc(F)cc5)c4cc3C)C2)n1 (single isomer, unassigned) [Example 135, 5-(4-((2-ethyl-2H-1,2,3-triazol-4-yl)sulfonyl)-1-(3,3,3-trifluoropropyl)piperazin-2-yl)-1-(4-fluorophenyl)-6-methyl-1H-indazole]
19 | 0.042 | Cc1cc2c(cnn2-c2ccc(F)cc2)cc1C1CN(S(=O)(=O)c2c(C)nnn2C)CCN1CC(C)C (single isomer, unassigned) [Example 100, 5-(4-((1,4-dimethyl-1H-1,2,3-triazol-5-yl)sulfonyl)-1-isobutylpiperazin-2-yl)-1-(4-fluorophenyl)-6-methyl-1H-indazole]
20 | 0.0065 | Cc1nc(S(=O)(=O)N2CCN(CCC(F)(F)F)C(c3cc4cnn(-c5ccc(F)cc5)c4cc3C)C2)cs1 (single isomer, unassigned) [Example 134, 4-((3-(1-(4-fluorophenyl)-6-methyl-1H-indazol-5-yl)-4-(3,3,3-trifluoropropyl)piperazin-1-yl)sulfonyl)-2-methylthiazole]
21 | 0.045 | Cc1cc2c(cnn2-c2ccc(F)cc2)cc1[C@@H]1CN(S(=O)(=O)c2cnn(C)n2)CCN1C[C@H](C)F (racemic) [Example 158, 1-(4-fluorophenyl)-5-(1-(2-fluoropropyl)-4-((2-methyl-2H-1,2,3-triazol-4-yl)sulfonyl)piperazin-2-yl)-6-methyl-1H-indazole]
22 | 0.091 | Cc1cc2c(cnn2-c2ccc(F)c(C#N)c2)cc1C1CN(S(=O)(=O)c2cnn(C)n2)CCN1CCC(F)(F)F (single isomer, unassigned) [Example 170, 2-fluoro-5-(6-methyl-5-(4-((2-methyl-2H-1,2,3-triazol-4-yl)sulfonyl)-1-(3,3,3-trifluoropropyl)piperazin-2-yl)-1H-indazol-1-yl)benzonitrile]
23 | 0.065 | Cc1cc2c(cnn2-c2ccc(F)cc2)cc1C1CN(S(=O)(=O)C2COC2)CCN1CC(C)C (single isomer, unassigned) [Example 111, 1-(4-fluorophenyl)-5-(1-isobutyl-4-(oxetan-3-ylsulfonyl)piperazin-2-yl)-6-methyl-1H-indazole]
24 | 0.044 | Cc1cc2c(cnn2-c2ccc(F)cc2)cc1C1CN(S(=O)(=O)CCOC(C)C)CCN1CC(C)C (single isomer, unassigned) [Example 108, 1-(4-fluorophenyl)-5-(1-isobutyl-4-((2-isopropoxyethyl)sulfonyl)piperazin-2-yl)-6-methyl-1H-indazole]
25 | 0.024 | Cc1cc2c(cnn2-c2ccc(F)cc2)cc1[C@@H]1CN(S(=O)(=O)c2cnn(C)n2)CCN1C[C@H]1C[C@@H](O)C1 (racemic) [Example 154, 3-((2-(1-(4-fluorophenyl)-6-methyl-1H-indazol-5-yl)-4-((2-methyl-2H-1,2,3-triazol-4-yl)sulfonyl)piperazin-1-yl)methyl)cyclobutan-1-ol]
